Experimental data: ChEMBL document CHEMBL1671651, “Azithromycin in Pseudomonas aeruginosa biofilms: bactericidal activity and selection of nfxB mutants” (2009)
In brackets after ≈: the same amount, converted by molar mass.

Tests used:
Type in all cases: functional
[1] = tested on: Pseudomonas aeruginosa; test: Antimicrobial activity against mutS::lox-deficient Pseudomonas aeruginosa PAOMSB biofilm harboring nfxB C116T mutant gene selected at 4 ug/ml of azithromycin after 5 passages by Etest method
[2] = tested on: Pseudomonas aeruginosa; test: Antimicrobial activity against mucA::lox, mutS::lox-deficient Pseudomonas aeruginosa PAOMSAB biofilm harboring nfxB C25T mutant gene selected at 1 ug/ml of azithromycin after 2 passages by Etest method
[3] = tested on: Pseudomonas aeruginosa; test: Antimicrobial activity against mucA::lox, mutS::lox-deficient Pseudomonas aeruginosa PAOMSAB biofilm harboring nfxB T86C mutant gene selected at 4 ug/ml of azithromycin after 2 passages by Etest method
[4] = tested on: Pseudomonas aeruginosa; test: Antimicrobial activity against Pseudomonas aeruginosa PAO1 A biofilm harboring nfxB T248C mutant gene selected at 4 ug/ml of azithromycin after 4 passages by Etest method
[5] = tested on: Pseudomonas aeruginosa; test: Antimicrobial activity against mutS::lox-deficient Pseudomonas aeruginosa PAOMSA biofilm harboring nfxB G461A mutant gene selected at 4 ug/ml of azithromycin after 5 passages by Etest method
[6] = tested on: Pseudomonas aeruginosa; test: Antimicrobial activity against mucA::lox, mutS::lox-deficient Pseudomonas aeruginosa PAOMSAA biofilm harboring nfxB C89T mutant gene selected at 0.5 ug/ml of azithromycin after 3 passages by Etest method
[7] = tested on: Pseudomonas aeruginosa; test: Antimicrobial activity against mucA::lox-deficient Pseudomonas aeruginosa PAOMAB biofilm harboring nfxB G125T mutant gene selected at 0.5 ug/ml of azithromycin after 1 passages by Etest method
[8] = tested on: Pseudomonas aeruginosa; test: Antimicrobial activity against mutS::lox-deficient Pseudomonas aeruginosa PAOMSB biofilm harboring nfxB T562C mutant gene selected at 4 ug/ml of azithromycin after 4 passages by Etest method
[9] = tested on: Pseudomonas aeruginosa; test: Antimicrobial activity against Pseudomonas aeruginosa PAO1 A biofilm harboring duplication mutation at nucleotide 333 in nfxB gene selected at 0.5 ug/ml of azithromycin by Etest method
[10] = tested on: Pseudomonas aeruginosa; test: Antimicrobial activity against mutS::lox,nfxB gene-deficient Pseudomonas aeruginosa PAOMSNB biofilm by Etest method
[11] = tested on: Pseudomonas aeruginosa; test: Antimicrobial activity against mucA::lox, mutS::lox-deficient Pseudomonas aeruginosa PAOMSAB biofilm harboring nfxB C89T mutant gene selected at 4 ug/ml of azithromycin after 6 passages by Etest method
[12] = tested on: Pseudomonas aeruginosa; test: Antimicrobial activity against mutS::lox-deficient Pseudomonas aeruginosa PAOMS biofilm by Etest method
[13] = tested on: Pseudomonas aeruginosa; test: Antimicrobial activity against mucA::lox-deficient Pseudomonas aeruginosa PAOMAA biofilm harboring nfxB C25T mutant gene selected at 1 ug/ml of azithromycin after 2 passages by Etest method
[14] = tested on: Pseudomonas aeruginosa; test: Antimicrobial activity against mutS::lox-deficient Pseudomonas aeruginosa PAOMSA biofilm harboring nfxB T86C mutant gene selected at 4 ug/ml of azithromycin after 3 passages by Etest method
[15] = tested on: Pseudomonas aeruginosa; test: Antimicrobial activity against mucA::lox, mutS::lox-deficient Pseudomonas aeruginosa PAOMSA biofilm by Etest method
[16] = tested on: Pseudomonas aeruginosa; test: Antimicrobial activity against mucA::lox, mutS::lox-deficient Pseudomonas aeruginosa PAOMSAB biofilm harboring nfxB T544C mutant gene selected at 4 ug/ml of azithromycin after 1 passages by Etest method
[17] = tested on: Pseudomonas aeruginosa; test: Antimicrobial activity against mutS::lox-deficient Pseudomonas aeruginosa PAOMSA biofilm harboring nfxB T86C mutant gene selected at 4 ug/ml of azithromycin after 4 passages by Etest method
[18] = tested on: Pseudomonas aeruginosa; test: Antimicrobial activity against mucA::lox-deficient Pseudomonas aeruginosa PAOMA biofilm by Etest method
[19] = tested on: Pseudomonas aeruginosa; test: Antimicrobial activity against mutS::lox-deficient Pseudomonas aeruginosa PAOMSB biofilm harboring deletion od C534 in nfxB mutant gene selected at 4 ug/ml of azithromycin after 2 passages by Etest method
[20] = tested on: Pseudomonas aeruginosa; test: Antimicrobial activity against mutS::lox-deficient Pseudomonas aeruginosa PAOMSA biofilm harboring nfxB G539A mutant gene selected at 4 ug/ml of azithromycin after 6 passages by Etest method
[21] = tested on: Pseudomonas aeruginosa; test: Antimicrobial activity against Pseudomonas aeruginosa PAO1 biofilm by Etest method
[22] = tested on: Pseudomonas aeruginosa; test: Antimicrobial activity against mutS::lox-deficient Pseudomonas aeruginosa PAOMSB biofilm harboring nfxB T41C mutant gene selected at 4 ug/ml of azithromycin after 3 passages by Etest method
[23] = tested on: Pseudomonas aeruginosa; test: Antimicrobial activity against mutS::lox-deficient Pseudomonas aeruginosa PAOMSB biofilm harboring nfxB T77C mutant gene selected at 4 ug/ml of azithromycin after 6 passages by Etest method
[24] = tested on: Pseudomonas aeruginosa; test: Antimicrobial activity against mexD::lox-deficient Pseudomonas aeruginosa PAOMxD biofilm by Etest method
[25] = tested on: Pseudomonas aeruginosa; test: Antimicrobial activity against mucA::lox, mutS::lox-deficient Pseudomonas aeruginosa PAOMSAA biofilm harboring nfxB T77C mutant gene selected at 4 ug/ml of azithromycin after 3 passages by Etest method
[26] = tested on: Pseudomonas aeruginosa; test: Antimicrobial activity against mucA::lox, mutS::lox-deficient Pseudomonas aeruginosa PAOMSAA biofilm harboring nfxB C89T mutant gene selected at 4 ug/ml of azithromycin after 6 passages by Etest method
[27] = tested on: Pseudomonas aeruginosa; test: Antimicrobial activity against mucA::lox, mutS::lox-deficient Pseudomonas aeruginosa PAOMSAA biofilm harboring nfxB T86C mutant gene selected at 4 ug/ml of azithromycin after 2 passages by Etest method
[28] = tested on: Pseudomonas aeruginosa; test: Antimicrobial activity against mutS::lox-deficient Pseudomonas aeruginosa PAOMSB biofilm harboring nfxB T380C mutant gene selected at 0.5 ug/ml of azithromycin after 2 passages by Etest method
[29] = tested on: Pseudomonas aeruginosa; test: Antimicrobial activity against mutS::lox-deficient Pseudomonas aeruginosa PAOMSA biofilm harboring nfxB T533C mutant gene selected at 4 ug/ml of azithromycin after 2 passages by Etest method
[30] = tested on: Pseudomonas aeruginosa; test: Antimicrobial activity against mutS::lox,mexD::lox-deficient Pseudomonas aeruginosa PAOMSMxD biofilm by Etest method
[31] = tested on: Pseudomonas aeruginosa; test: Antimicrobial activity against nfxB gene-deficient Pseudomonas aeruginosa PAONB biofilm by Etest method
[32] = tested on: Pseudomonas aeruginosa; test: Antimicrobial activity against mutS::lox-deficient Pseudomonas aeruginosa PAOMSA biofilm harboring nfxB C116T mutant gene selected at 1 ug/ml of azithromycin after 1 passages by Etest method
[33] = tested on: Pseudomonas aeruginosa; test: Antimicrobial activity against Pseudomonas aeruginosa PAO1 A biofilm harboring deletion mutation at nucleotide 231-244 in nfxB gene selected at 1 ug/ml of azithromycin after 4 passages by Etest method

C[C@@H](O)[C@H]1C(=O)N2C(C(=O)O)=C(SCCNC=N)C[C@H]12 [IMIPENEM ANHYDROUS]
MIC [1]: 0.38 µg/mL
MIC [2]: 0.25 µg/mL
MIC [3]: 0.25 µg/mL
MIC [4]: 0.38 µg/mL
MIC [5]: 1.5 µg/mL
MIC [6]: 0.38 µg/mL
MIC [7]: 0.25 µg/mL
MIC [8]: 1 µg/mL
MIC [9]: 0.25 µg/mL
MIC [10]: 0.5 µg/mL (≈ 1.67 µM)
MIC [11]: 0.38 µg/mL
MIC [12]: 1.5 µg/mL (≈ 5.01 µM)
MIC [13]: 0.38 µg/mL
MIC [14]: 0.25 µg/mL
MIC [15]: 1.5 µg/mL (≈ 5.01 µM)
MIC [16]: 1 µg/mL
MIC [17]: 0.19 µg/mL
MIC [18]: 1 µg/mL (≈ 3.34 µM)
MIC [19]: 1 µg/mL
MIC [20]: 0.25 µg/mL
MIC [21]: 1.5 µg/mL (≈ 5.01 µM)
MIC [22]: 1 µg/mL
MIC [23]: 0.5 µg/mL
MIC [24]: 1.5 µg/mL (≈ 5.01 µM)
MIC [25]: 1 µg/mL
MIC [26]: 0.38 µg/mL
MIC [27]: 0.38 µg/mL
MIC [28]: 0.25 µg/mL
MIC [29]: 0.38 µg/mL
MIC [30]: 1.5 µg/mL (≈ 5.01 µM)
MIC [31]: 0.19 µg/mL (≈ 0.635 µM)
MIC [32]: 1 µg/mL
MIC [33]: 0.38 µg/mL

C[C@H]1[C@H](NC(=O)/C(=N\OC(C)(C)C(=O)O)c2csc(N)n2)C(=O)N1S(=O)(=O)O [AZTREONAM]
MIC [1]: 0.75 µg/mL
MIC [2]: 0.75 µg/mL
MIC [3]: 1 µg/mL
MIC [4]: 0.75 µg/mL
MIC [5]: 2 µg/mL
MIC [6]: 1 µg/mL
MIC [7]: 0.5 µg/mL
MIC [8]: 1.5 µg/mL
MIC [9]: 0.75 µg/mL
MIC [10]: 1 µg/mL (≈ 2.3 µM)
MIC [11]: 1 µg/mL
MIC [12]: 2 µg/mL (≈ 4.59 µM)
MIC [13]: 0.75 µg/mL
MIC [14]: 1 µg/mL
MIC [15]: 2 µg/mL (≈ 4.59 µM)
MIC [16]: 2 µg/mL
MIC [17]: 0.75 µg/mL
MIC [18]: 2 µg/mL (≈ 4.59 µM)
MIC [19]: 2 µg/mL
MIC [20]: 0.75 µg/mL
MIC [21]: 2 µg/mL (≈ 4.59 µM)
MIC [22]: 2 µg/mL
MIC [23]: 1 µg/mL
MIC [24]: 2 µg/mL (≈ 4.59 µM)
MIC [25]: 2 µg/mL
MIC [26]: 1 µg/mL
MIC [27]: 1 µg/mL
MIC [28]: 0.75 µg/mL
MIC [29]: 0.75 µg/mL
MIC [30]: 2 µg/mL (≈ 4.59 µM)
MIC [31]: 0.5 µg/mL (≈ 1.15 µM)
MIC [32]: 2 µg/mL
MIC [33]: 0.5 µg/mL
